Entries after “also recorded” stand apart in the source; their conditions may differ.
Legend:
[1] = tested on: HIV-1 patient viruses with protease L90M; assay: Phenotypic susceptibility profiles of 58 patient virus samples with L90M, no other primary mutations; type: cell-based; details: for % FC > 2.5: IDV; for % w with IDV FC > 2.5: L90M
[2] = tested on: HIV-1 variants with protease substitutions; details: cited from earlier work
[3] = tested on: HIV-1 patient viruses with protease L90M; assay: Phenotypic susceptibility profiles of 333 patient virus samples with L90M (not 30 or 50); type: cell-based
[4] = tested on: HIV-1 protease site-directed mutants (N88S, L63P, V77I, M46L) in resistance test vector; assay: Phenotypic susceptibility assay of resistance test vectors with site-directed mutations in PR
From the text: The resistance test vectors containing a functional luciferase gene cassette were constructed and host cells were transfected with the resistance test vector DNA. […] The resistance test vector viral particles produced by transfecting the resistance test vector DNA into host cells, either in the presence or absence of protease inhibitors, were used to infect target host cells grown either in the absence of NRTI or NNRTI or in the presence of increasing concentrations of the drug. Luciferase activity in infected target host cells in the presence of drug was compared to the luciferase activity in infected target host cells in the absence of drug. […] The IC50 values were determined by plotting percent drug inhibition vs. log10 drug concentration.
Host cells were seeded in 10-cm-diameter dishes and were transfected one day after plating with resistance test vector plasmid DNA and the envelope expression vector. Transfections were performed using a calcium-phosphate co-precipitation procedure. The cell culture media containing the DNA precipitate was replaced with fresh medium, from one to 24 hours, after transfection. Cell culture media containing resistance test vector viral particles was harvested one to four days after transfection and was passed through a 0.45-mm filter before being stored at −80° C. HIV capsid protein (p24) levels in the harvested cell culture media were determined by an EIA method as described by the manufacturer (SIAC; Frederick, Md.). Before infection, target cells (293 and 293/T) were plated in cell culture media. Control infections were performed using cell culture media from mock transfections (no DNA) or transfections containing the resistance test vector plasmid DNA without the envelope expression plasmid. One to three or more days after infection the media was removed and cell lysis buffer (Promega) was added to each well. Cell lysates were assayed for luciferase activity. The inhibitory effect of the drug was determined using the following equation: % luciferase inhibition=[1−(RLUluc[drug]RLUluc)]×100 where RLUluc [drug] is the relative light unit of luciferase activity in infected cells in the presence of drug and RLUluc is the Relative Light Unit of luciferase activity in infected cells in the absence of drug. IC50 values were obtained from the sigmoidal curves that were generated from the data by plotting the percent inhibition of luciferase activity vs. the log10 drug concentration.
Mutations are introduced into the resistance test vector through any of the widely known methods for site-directed mutagenesis. […] A resistance test vector containing the specific mutation or group of mutations are then tested using the phenotypic susceptibility assay described above and the susceptibility profile is compared to that of a genetically defined wild-type (drug susceptible) resistance test vector which lacks the specific mutations.
Resistance test vectors were constructed containing the N88S mutation alone and in combination with other substitutions in PR (L63P, V77I and M46L) known to modulate the HIV susceptibility to PRIs. Mutations were introduced into the resistance test vector using the mega-primer PCR method for site-directed mutagenesis.

[5] = tested on: HIV-1 patient-derived protease and reverse transcriptase segments (N88S in PR) in resistance test vectors; assay: Phenotypic drug susceptibility test with resistance test vectors from patient samples; type: cell-based; details: for Fold Change vs. reference: N88S

Structure (SMILES): CC(C)(C)NC(=O)[C@@H]1CN(Cc2cccnc2)CCN1C[C@@H](O)C[C@@H](Cc1ccccc1)C(=O)N[C@H]1c2ccccc2C[C@H]1O [indinavir]
- % FC > 2.5 ([1]; L90M + mutation at position 46): 88%
- % FC > 2.5 ([1]; L90M + mutation at position 71): 89%
- % FC > 2.5 ([1]; L90M + mutation at position 71, listed as IDV): 89%
- % FC > 2.5 ([1]; L90M + mutation at position 73): 89%
- % FC > 2.5 ([1]; L90M + mutation at position 73, listed as IDV): 89%
- % FC > 2.5 ([1]; listed as 90: all viruses with L90M): 69%
- % w with IDV FC > 2.5 ([1]; number of secondary mutations 0): 69%
- % w with IDV FC > 2.5 ([1]; number of secondary mutations 1): 70%
- % w with IDV FC > 2.5 ([1]; number of secondary mutations 2): 70%
- % w with IDV FC > 2.5 ([1]; number of secondary mutations 3): 80%
- % w with IDV FC > 2.5 ([1]; number of secondary mutations 4): 87%
- % w with IDV FC > 2.5 ([1]; number of secondary mutations 5): 100%
- % w with IDV FC > 2.5 ([1]; number of secondary mutations 6): 100%
- loss of susceptibility ([2]; mutant HIV-1 clones with mutations at residues 46, 63, and 82): fourfold
- loss of susceptibility compared with the wild type ([2]; selection in MT-4 cells, substitutions at residues 32, 46, 71, and 82): 6.1 fold
- wt % > 2.5 ([3]; Indinavir FC>2.5, L90M, position 10 wild type): 66.7%
- wt % > 2.5 ([3]; Indinavir FC>2.5, L90M, position 13 wild type): 87.1%
- wt % > 2.5 ([3]; Indinavir FC>2.5, L90M, position 20 wild type): 81.2%
- wt % > 2.5 ([3]; Indinavir FC>2.5, L90M, position 46 wild type): 76.3%
- wt % > 2.5 ([3]; Indinavir FC>2.5, L90M, position 53 wild type): 83.2%
- wt % > 2.5 ([3]; Indinavir FC>2.5, L90M, position 54 wild type): 76.0%
- wt % > 2.5 ([3]; Indinavir FC>2.5, L90M, position 63 wild type): 50.0%
- wt % > 2.5 ([3]; Indinavir FC>2.5, L90M, position 71 wild type): 69.0%
- wt % > 2.5 ([3]; Indinavir FC>2.5, L90M, position 73 wild type): 80.6%
- wt % > 2.5 ([3]; Indinavir FC>2.5, L90M, position 74 wild type): 87.0%
- wt % > 2.5 ([3]; Indinavir FC>2.5, L90M, position 82 wild type): 78.3%
- wt % > 2.5 ([3]; Indinavir FC>2.5, L90M, position 84 wild type): 79.0%
- wt % > 2.5 ([3]; Indinavir FC>2.5, L90M, position 95 wild type): 83.5%
- mt % > 2.5 ([3]; Indinavir FC>2.5, listed as 90: all samples with L90M): 84.7%
- wt % > 10 ([3]; Indinavir FC>10, L90M, position 10 wild type): 23.1%
- wt % > 10 ([3]; Indinavir FC>10, L90M, position 20 wild type): 47.2%
- wt % > 10 ([3]; Indinavir FC>10, L90M, position 36 wild type): 48.9%
- wt % > 10 ([3]; Indinavir FC>10, L90M, position 46 wild type): 44.4%
- wt % > 10 ([3]; Indinavir FC>10, L90M, position 54 wild type): 36.3%
- wt % > 10 ([3]; Indinavir FC>10, L90M, position 55 wild type): 51.8%
- wt % > 10 ([3]; Indinavir FC>10, L90M, position 62 wild type): 45.3%
- wt % > 10 ([3]; Indinavir FC>10, L90M, position 71 wild type): 37.0%
- wt % > 10 ([3]; Indinavir FC>10, L90M, position 72 wild type): 50.0%
- wt % > 10 ([3]; Indinavir FC>10, L90M, position 74 wild type): 57.3%
- wt % > 10 ([3]; Indinavir FC>10, L90M, position 82 wild type): 39.9%
- wt % > 10 ([3]; Indinavir FC>10, L90M, position 84 wild type): 46.3%
- wt % > 10 ([3]; Indinavir FC>10, L90M, position 85 wild type): 52.3%
- wt % > 10 ([3]; Indinavir FC>10, L90M, position 95 wild type): 51.6%
- mt % > 10 ([3]; Indinavir FC>10, listed as 90: all samples with L90M): 53.8%
- change in susceptibility compared to wild type control RTV ([4]; L63P-N88S-RTV): decreased susceptibility
- change in susceptibility compared to wild type control RTV ([4]; L63P-V77I-N88S-RTV): decrease in susceptibility; also recorded: resistance
- change in susceptibility compared to wild type control RTV ([4]; M46L-L63P-N88S-RTV): slight decrease in susceptibility
- change in susceptibility compared to wild type control RTV ([4]; M46L-L63P-V77I-N88S-RTV): decrease in susceptibility
- change in susceptibility ([5]; patient sample RTV-360): decrease
- change in susceptibility ([5]; patient sample RTV-627): decrease
- change in susceptibility ([5]; patient sample RTV-0732): decrease; also recorded: decreased susceptibility
- change in susceptibility ([5]; patient sample RTV-0910): decrease
- change in susceptibility ([5]; patient sample RTV-1208): decrease
- change in susceptibility ([5]; patient sample RTV-3542): decrease
- change in susceptibility ([5]; patient sample RTV-3654): decrease

Structure (SMILES): Cc1c(O)cccc1C(=O)N[C@@H](CSc1ccccc1)[C@H](O)CN1C[C@H]2CCCC[C@H]2C[C@H]1C(=O)NC(C)(C)C [nelfinavir]
- increase in 90% effective concentration ([2]; I84V and D30N single mutants and M46I/I84V double mutant of HIV-1 NL4-3): fivefold
- change in susceptibility ([2]; M46I, L63P, or A71V alone): no change in susceptibility
- reduced susceptibility ([2]; variant P22, 22 serial passages of HIV-1 NL4-3): sevenfold
- decreased susceptibility ([2]; variant P28, additional six passages): 30 fold
- change in susceptibility compared to wild type control RTV ([4]; L63P-N88S-RTV): decreased susceptibility
- change in susceptibility compared to wild type control RTV ([4]; L63P-V77I-N88S-RTV): decrease in susceptibility; also recorded: resistance
- change in susceptibility compared to wild type control RTV ([4]; L63P-V77I-RTV): slight decrease in susceptibility
- change in susceptibility compared to wild type control RTV ([4]; M46L-L63P-N88S-RTV): decrease in susceptibility
- change in susceptibility compared to wild type control RTV ([4]; M46L-L63P-V77I-N88S-RTV): decrease in susceptibility
- change in susceptibility compared to wild type control RTV ([4]; N88S-RTV): slightly less susceptible
- change in susceptibility ([5]; patient sample RTV-360): decrease
- change in susceptibility ([5]; patient sample RTV-627): decrease
- change in susceptibility ([5]; patient sample RTV-0732): decrease; also recorded: decreased susceptibility
- change in susceptibility ([5]; patient sample RTV-0910): decrease
- change in susceptibility ([5]; patient sample RTV-1208): decrease
- change in susceptibility ([5]; patient sample RTV-3542): decrease
- change in susceptibility ([5]; patient sample RTV-3654): decrease

Structure (SMILES): CC(C)c1nc(CN(C)C(=O)N[C@H](C(=O)N[C@@H](Cc2ccccc2)C[C@H](O)[C@H](Cc2ccccc2)NC(=O)OCc2cncs2)C(C)C)cs1 [ritonavir]
- reduction in sensitivity ([2]; I84V substitution): 10 fold
- level of resistance ([2]; I84V with addition of V82F): up to 20 fold
- change in drug susceptibility ([2]; M46I, L63P, A71V introduced into wild-type NL4-3): did not result in significant changes in drug susceptibility
- Percent of viruses with indicated primary mutation(s) with reduced susceptibility (fold change in IC50 > 2.5) ([3]; L90M): 93.4%
- Percent of viruses with indicated primary mutation(s) with reduced susceptibility (fold change in IC50 > 10) ([3]; L90M): 66.1%
- change in susceptibility compared to wild type control RTV ([4]; N88S-RTV): more susceptible
- Fold Change vs. reference ([4]; site-directed mutation N88S): 0.36 fold
- Fold Change vs. reference ([4]; site-directed mutations L63P): 1.27 fold
- Fold Change vs. reference ([4]; site-directed mutations L63P, N88S): 0.77 fold
- Fold Change vs. reference ([4]; site-directed mutations L63P, V77I): 1.73 fold
- Fold Change vs. reference ([4]; site-directed mutations L63P, V77I, N88S): 1.39 fold
- Fold Change vs. reference ([4]; site-directed mutations M46L, L63P, N88S): 0.85 fold
- Fold Change vs. reference ([4]; site-directed mutations M46L, L63P, V77I, N88S): 1.33 fold
- Fold Change vs. reference ([5]; patient sample 360, prior PRI IDV, PR I13V, K20M, M36V, N37A, M46I, I62V, L63P, I93L): 1.49 fold
- Fold Change vs. reference ([5]; patient sample 627, prior PRI IDV, PR I13I/V, E35D, M46L, L63P, I64V, I73V): 1.50 fold
- Fold Change vs. reference ([5]; patient sample 0732, prior PRI NFV, PR K14R, I15V, K20T, E35D, M36I, R41K, I62V, L63Q): 1.72 fold
- Fold Change vs. reference ([5]; patient sample 0910, prior PRI NFV, PR M46I, L63P, V77I, I93I/L): 1.85 fold
- Fold Change vs. reference ([5]; patient sample 1208, prior PRI NFV, PR I62V, L63P, V77I): 1.22 fold
- Fold Change vs. reference ([5]; patient sample 3542, prior PRI IDV, PR I13V, K14R, N37D, M46I, L63P, I93L): 3.36 fold
- Fold Change vs. reference ([5]; patient sample 3654, PR I13V, R41K, M46I, L63P, V77I, I93L): 1.95 fold
- change in susceptibility ([5]; patient sample RTV-3542): decrease
